In test [1] the test system is primary human fibroblasts derived from IPF patients (LL29 cells) treated with TGF-β1. The test can be described thus: Inhibition of the fibrotic process: αSMA staining in TGF-β1-treated LL29 fibroblasts. In kind it is cell-based. To be noted: Fibroblast; for pEC50: 96 h, LL29 fibroblasts treated with TGF-β1 (20 ng/mL), 4 days, Table 4; for inhibition at 10 µM: LL29 fibroblasts treated with TGF-β1, Table 4, read-out: percent inhibition at 10 μM (given in parentheses for EC50 >10 μM). The text has this: Representative compounds were screened using primary human fibroblasts (derived from IPF patients) treated with TGF-β1 to determine their ability to inhibit the fibrotic process.
Human Fibroblast Cell Culture: Primary human fibroblasts derived from IPF patients (LL29 cells) [^1Xiaoqiu Liu, et. al., “Fibrotic Lung Fibroblasts Show Blunted Inhibition by cAMP Due to Deficient cAMP Response Element-Binding Protein Phosphorylation”, Journal of Pharmacology and Experimental Therapeutics (2005), 315(2), 678-687; ^2Watts, K. L., et. al., “RhoA signaling modulates cyclin D1 expression in human lung fibroblasts; implications for idiopathic pulmonary fibrosis”, Respiratory Research (2006), 7(1), 88] were obtained from American Type Culture Collection (ATCC) and expanded in F12 medium supplemented with 15% Fetal Bovine Serum and Penicillin/Streptomycin.
Compound Screening: Each compound was dissolved in DMSO as a 10 mM stock and used to prepare compound source plates. Serial dilution (1:2, 11-point dose-response curves from 10 μM to […]) and compound transfer was performed using the ECHO 550 (Labcyte, Sunnyvale, Calif.) into 384-well clear bottom assay plates (Greiner Bio-One) with appropriate DMSO backfill for a final DMSO concentration of 0.1%. LL29 cells are plated at 1,500 cells/well in 80 μL/well F12 medium supplemented with 1% Fetal Bovine Serum. One hour after addition of the cells, TGF-β1 (Peprotech; 20 ng/mL) was added to the plates to induce fibrosis (ref. 1 and 2 above). Wells treated with TGF-β1 and containing DMSO were used as controls. Cells were incubated at 37° C. and 5% CO2 for 4 days. Following incubation for 4 days, SYTOX green nucleic acid stain (Life Technologies [Thermo Fisher Scientific]) was added to the wells at a final concentration of 1 μM and incubated at room temperature for 30 min. Cells were then fixed using 4% formaldehyde (Electron Microscopy Sciences), washed 3 times with PBS followed by blocking and permeabilization using 3% Bovine Serum Albumin (BSA; Sigma) and 0.3% Triton X-100 (Sigma) in PBS. Cells were then stained with antibody specific to α-smooth muscle actin (αSMA; Abcam) (ref. 1 and 2 above) in 3% Bovine Serum Albumin (BSA; Sigma) and 0.3% Triton X-100 (Sigma) in PBS, and incubated overnight at 4° C. Cells were then washed 3 times with PBS, followed by incubation with Alexa Flor-647 conjugated secondary antibody (Life Technologies [Thermo Fisher Scientific]) and DAPI at room temperature for 1 hour. Cells were then washed 3 times with PBS and plates were sealed for imaging. αSMA staining was imaged by excitation at 630 nm and emission at 665 nm and quantified using the Compartmental Analysis program on the CellInsight CX5 (Thermo Scientific). Dead or apoptotic cells were excluded from analysis based on positive SYTOX green staining. % of total cells positive for αSMA were counted in each well and normalized to the average of 11 wells treated with TGF-β1 on the same plate using Dotmatics' Studies Software. The normalized averages (fold change over untreated) of 3 replicate wells for each compound concentration were used to create dose-responses curves and EC50 values were calculated using non-linear regression curve fit in the Dotmatics' Studies Software. For EC50 of >10 μM, the percent inhibition at 10 μM is provided.

For another test, the system named is SW480 colon cancer cells. Put plainly: Cell viability assay (CellTiter-Blue) in SW480 cells. In kind it is cell-based. To be noted: Homo sapiens, 96 h, four days; for pEC50: CellTiter-Blue, 10 μM to 0.0045 μM; for inhibition at 10 µM: read-out: percent inhibition at 10 μM (given for EC50 of >10 μM). Here is the method:
Representative compounds were screened using the following assay procedure to assess the effect on cell viability as described below.
Each compound was dissolved in DMSO as a 10 mM stock and used to prepare compound source plates. Serial dilution (1:3, 8-point dose-response curves from 10 μM to 0.0045 μM) and compound transfer was performed using the ECHO 550 (Labcyte, Sunnyvale, Calif.) into 96-well clear bottom, black-walled plates (Corning-Costar).
Approximately 2×10^3 SW480 colon cancer cells were seeded into each well and allowed to incubate in the presence or absence of compound for four days at 37° C./5% CO2. Eight replicates of DMSO-treated cells served as controls and cells treated with compound were performed in duplicate.
After incubation, 20 μL of CellTiter-Blue (Promega) was added to each well allowed to incubate for approximately 3 hours. This reagent was a buffered solution which contains resazurin, metabolically active cells were able to reduce rezarurin (blue) into resorufin (pink) which was highly fluorescent. This measured fluorescence was used as a readout for cell viability.
After incubation, the plates were read at Ex 560 nm Em 590 nm (Cytation 3, BioTek). Dose-response curves were generated and EC50 concentration values were calculated using non-linear regression curve fit in the GraphPad Prism (San Diego, Calif.) or Dotmatics' Studies Software (Bishops Stortford, UK). For EC50 of >10 μM, the percent inhibition at 10 μM is provided.
Background: Resazurin is reduced to fluorescent resorufin, in cell work by metabolically active cells.

The structures appear in SMILES notation. pEC50: −log10 of the molar value. Where only a bound is given, the exact number is not on record here.

Consider `Fc1cccc(-c2cccc3[nH]c(-c4n[nH]c5ccc(C6=CCNCC6)nc45)nc23)c1` [Compound 506, 3-(4-(3-Fluorophenyl)-1H-benzo[d]imidazol-2-yl)-5-(1,2,3,6-tetrahydropyridin-4-yl)-1H-pyrazolo[4,3-b]pyridine], for which the pEC50 in test [1] is 5.79; with SW480 colon cancer cells, 5.38.

`Fc1cccc(-c2cccc3[nH]c(-c4n[nH]c5ccc(-c6cn[nH]c6)nc45)nc23)c1` [Compound 507, 3-(4-(3-Fluorophenyl)-1H-benzo[d]imidazol-2-yl)-5-(1H-pyrazol-4-yl)-1H-pyrazolo[4,3-b]pyridine]: the negative logarithm of the EC50 (pEC50) in test [1] is 5.53; in the test on SW480 colon cancer cells it was 6.01.

Consider `Fc1cccc(-c2cccc3[nH]c(-c4n[nH]c5ccc(-c6cnccn6)nc45)nc23)c1` [Compound 520, 3-(4-(3-Fluorophenyl)-1H-benzo[d]imidazol-2-yl)-5-(pyrazin-2-yl)-1H-pyrazolo[4,3-b]pyridine], for which the pEC50 was 5.37 in test [1] and 5.75 with SW480 colon cancer cells.

As for `c1cc(-c2ccncc2)c2nc(-c3n[nH]c4ccc(-c5cncc(OC6CCNCC6)c5)nc34)[nH]c2c1` [Compound 576, 5-(5-(Piperidin-4-yloxy)pyridin-3-yl)-3-(4-(pyridin-4-yl)-1H-benzo[d]imidazol-2-yl)-1H-pyrazolo[4,3-b]pyridine], the inhibition at 10 µM amounted to 9.2% in test [1] and 9% in the test with SW480 colon cancer cells. Further, the pEC50 (in test [1]; in the test on SW480 colon cancer cells) was less than 5.00 throughout.

Turning to `c1ccc(COc2cncc(-c3ccc4[nH]nc(-c5nc6c(-c7ccncc7)cccc6[nH]5)c4n3)c2)cc1` [Compound 582, 5-(5-(Benzyloxy)pyridin-3-yl)-3-(4-(pyridin-4-yl)-1H-benzo[d]imidazol-2-yl)-1H-pyrazolo[4,3-b]pyridine], the negative logarithm of the EC50 (pEC50) in test [1] is 5.85; in the test on SW480 colon cancer cells, less than 5.00. The inhibition at 10 µM in the test with SW480 colon cancer cells was determined as 28.5%.

Take `c1cc(-c2ccncc2)c2nc(-c3n[nH]c4ccc(-c5cnccn5)nc34)[nH]c2c1` [Compound 584, 5-(Pyrazin-2-yl)-3-(4-(pyridin-4-yl)-1H-benzo[d]imidazol-2-yl)-1H-pyrazolo[4,3-b]pyridine]: in test [1], the inhibition at 10 µM came out at 10% and the pEC50 was less than 5.00. In the test on SW480 colon cancer cells, the inhibition at 10 µM came out at 9.6% and the pEC50 is less than 5.00.

Regarding `O=C(CC1CCNCC1)Nc1cncc(-c2ccc3[nH]nc(-c4nc5c(-c6ccccn6)cccc5[nH]4)c3n2)c1` [Compound 593, 2-(Piperidin-4-yl)-N-(5-(3-(4-(pyridin-2-yl)-1H-benzo[d]imidazol-2-yl)-1H-pyrazolo[4,3-b]pyridin-5-yl)pyridin-3-yl)acetamide], the pEC50 in test [1] is 5.86; in the test on SW480 colon cancer cells, less than 5.00. The inhibition at 10 µM with SW480 colon cancer cells is 13.6%.

In the case of `Cc1cn(-c2cccc3[nH]c(-c4n[nH]c5ccc(C6=CCNCC6)nc45)nc23)cn1` [Compound 618, 3-(4-(4-Methyl-1H-imidazol-1-yl)-1H-benzo[d]imidazol-2-yl)-5-(1,2,3,6-tetrahydropyridin-4-yl)-1H-pyrazolo[4,3-b]pyridine], in test [1], the inhibition at 10 µM came out at 7.7% and the pEC50 was less than 5.00. In addition, in the test with SW480 colon cancer cells, the inhibition at 10 µM worked out at 7.4% and the pEC50 is less than 5.00.

`Cc1cn(-c2cccc3[nH]c(-c4n[nH]c5ccc(-c6cncc(N7CC(N)C7)n6)nc45)nc23)cn1` [Compound 622, 1-(6-(3-(4-(4-Methyl-1H-imidazol-1-yl)-1H-benzo[d]imidazol-2-yl)-1H-pyrazolo[4,3-b]pyridin-5-yl)pyrazin-2-yl)azetidin-3-amine]: the inhibition at 10 µM in test [1] is 0%; in the test with SW480 colon cancer cells, 17.8%. Besides, the pEC50 (in test [1]; with SW480 colon cancer cells) was less than 5.00 in each case.

As to `Cc1cn(-c2cccc3[nH]c(-c4n[nH]c5ccc(-c6cncc(OCCN(C)C)c6)nc45)nc23)cn1` [Compound 627, N,N-Dimethyl-2-((5-(3-(4-(4-methyl-1H-imidazol-1-yl)-1H-benzo[d]imidazol-2-yl)-1H-pyrazolo[4,3-b]pyridin-5-yl)pyridin-3-yl)oxy)ethan-1-amine], the pEC50 was 5.17 in test [1] and less than 5.00 in the test with SW480 colon cancer cells. Moreover, the inhibition at 10 µM with SW480 colon cancer cells is 14.1%.

In the case of `CN1CCN(c2cccc3[nH]c(-c4n[nH]c5ccc(-c6cnccn6)nc45)nc23)CC1` [Compound 648, 3-(4-(4-Methylpiperazin-1-yl)-1H-benzo[d]imidazol-2-yl)-5-(pyrazin-2-yl)-1H-pyrazolo[4,3-b]pyridine], in test [1], the inhibition at 10 µM worked out at 0% and the pEC50 is less than 5.00. The compound also had a pEC50 with SW480 colon cancer cells of 5.04.

On to `c1ccc2[nH]c(-c3n[nH]c4ccc(-c5cn[nH]c5)nc34)nc2c1` [Compound 651, 3-(1H-Benzo[d]imidazol-2-yl)-5-(1H-pyrazol-4-yl)-1H-pyrazolo[4,3-b]pyridine], for which the inhibition at 10 µM in test [1] stood at 0%; in the test on SW480 colon cancer cells it was 33.9%. Also, the pEC50 (in test [1]; in the test with SW480 colon cancer cells) was less than 5.00 throughout.

On to `c1ccc2[nH]c(-c3n[nH]c4ccc(-c5cncc(OC6CCNCC6)c5)nc34)nc2c1` [Compound 656, 3-(1H-Benzo[d]imidazol-2-yl)-5-(5-(piperidin-4-yloxy)pyridin-3-yl)-1H-pyrazolo[4,3-b]pyridine], for which, in test [1], the inhibition at 10 µM worked out at 45.9% and the negative-log EC50 (pEC50) is less than 5.00. In the test on SW480 colon cancer cells, the inhibition at 10 µM turned out to be 20.8% and the pEC50 is less than 5.00.

With `Oc1cncc(-c2ccc3[nH]nc(-c4nc5ccccc5[nH]4)c3n2)c1` [Compound 661, 5-(3-(1H-Benzo[d]imidazol-2-yl)-1H-pyrazolo[4,3-b]pyridin-5-yl)pyridin-3-ol], in test [1], the inhibition at 10 µM came out at 30.3% and the pEC50 is less than 5.00. In the test on SW480 colon cancer cells, the inhibition at 10 µM was 29.2% and the pEC50 was less than 5.00.

With `O=C(CC1CCNCC1)Nc1cncc(-c2ccc3[nH]nc(-c4nc5c(-c6ccsc6)cccc5[nH]4)c3n2)c1` [Compound 673, 2-(Piperidin-4-yl)-N-(5-(3-(4-(thiophen-3-yl)-1H-benzo[d]imidazol-2-yl)-1H-pyrazolo[4,3-b]pyridin-5-yl)pyridin-3-yl)acetamide], the pEC50 in test [1] is 5.56. Besides, in the test on SW480 colon cancer cells, the inhibition at 10 µM was determined as 4.3% and the pEC50 was less than 5.00.

For `Cc1ncc(-c2ccc3[nH]nc(-c4nc5c(-c6ccoc6)cccc5[nH]4)c3n2)n1C` [Compound 685, 5-(1,2-Dimethyl-1H-imidazol-5-yl)-3-(4-(furan-3-yl)-1H-benzo[d]imidazol-2-yl)-1H-pyrazolo[4,3-b]pyridine], the results for the negative logarithm of the EC50 (pEC50) (in test [1]; in the test with SW480 colon cancer cells) were 5.30 and 6.20, respectively.

Take `c1cc(-c2ccoc2)c2nc(-c3n[nH]c4ccc(-c5cncc(OCCN6CCCC6)c5)nc34)[nH]c2c1` [Compound 690, 3-(4-(Furan-3-yl)-1H-benzo[d]imidazol-2-yl)-5-(5-(2-(pyrrolidin-1-yl)ethoxy)pyridin-3-yl)-1H-pyrazolo[4,3-b]pyridine]: the pEC50 was 5.61 in test [1] and 5.41 with SW480 colon cancer cells.

The pEC50 is the negative decadic logarithm of the EC50, by convention in mol/L. Low values mean a large EC50, high ones a small EC50. In general, inhibition refers to how much of the control response was suppressed.

These data come from patent US10392383B2, “3-(1H-benzo[d]imidazol-2-yl)-1H-pyrazolo[4,3-b]pyridines and therapeutic uses thereof” (Samumed, LLC, priority 2015, dated 2019).
